# Assay results as given in patent US8455475B2 (Gruenenthal GmbH, priority 2009, dated 2013).
# Target: T1, rat B1R (bradykinin receptor 1) (Rattus norvegicus, UniProt P97583)
# T1 construct: expressed in transfected cells; host or cells: CHO K1 cells
# T1 sequence (P97583 1-337): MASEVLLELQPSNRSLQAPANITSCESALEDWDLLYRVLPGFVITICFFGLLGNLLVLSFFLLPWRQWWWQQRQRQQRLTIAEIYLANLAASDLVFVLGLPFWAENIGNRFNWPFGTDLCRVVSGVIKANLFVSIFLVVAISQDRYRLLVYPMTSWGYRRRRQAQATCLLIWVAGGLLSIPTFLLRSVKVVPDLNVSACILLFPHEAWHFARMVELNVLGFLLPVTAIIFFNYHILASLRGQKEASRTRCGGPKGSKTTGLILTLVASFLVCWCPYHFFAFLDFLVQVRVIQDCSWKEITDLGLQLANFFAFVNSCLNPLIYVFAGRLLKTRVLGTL
# Assay: FLIPR Ca2+ assay (Fluo-4) on CHO K1 cells stably transfected with the B1R gene of the rat (rB1R cells): % inhibition at 10 μM / IC50, agonist Des-Arg9-bradykinin
# Assay type: cell-based
# Details: CHO-K1, rat B1R
# How it was run: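 Stably transfected CHO K1 cells loaded with Fluo-4 and read on FLIPR (λex 488, λem 540 nm; peak fluorescence). Test substance (10 μM) added first, then after 10–20 min the agonist at EC80; % inhibition versus maximum achievable inhibition. IC50 from several concentrations, n=2–3, N≥2.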
row,Compound,inhibition at 10 µM [%]
1,"CN(C1CCc2ccc(C(=O)N3CCC4(CC3)CCN(c3ccncc3)CC4)cc21)S(=O)(=O)c1cc(Cl)ccc1Cl (stereo not drawn) [IND_CC-344, 2,5-Dichloro-N-methyl-N-[6-(9-pyridin-4-yl-3,9-diazaspiro[5.5]undecane-3-carbonyl)-2,3-dihydro-1H-inden-1-yl]-benzenesulfonic acid amide]",99
2,"Cc1ccccc1C(=O)N(C)C1CCc2ccc(C(=O)N3CCC4(CC3)CCN(c3ccncc3)CC4)cc21 (stereo not drawn) [IND_CC-345, N,2-Dimethyl-N-[6-(9-pyridin-4-yl-3,9-diazaspiro[5.5]undecane-3-carbonyl)-2,3-dihydro-1H-inden-1-yl]-benzamide]",105
3,"Cc1ccccc1C(=O)NC1CCc2ccc(C(=O)N3CCC4(CC3)CCN(c3ccncc3)CC4)cc21 (stereo not drawn) [IND_CC-346, 2-Methyl-N-[6-(9-pyridin-4-yl-3,9-diazaspiro[5.5]undecane-3-carbonyl)-2,3-dihydro-1H-inden-1-yl]-benzamide]",104
4,"Cc1ccccc1C(=O)NC1CCc2ccc(C(=O)N3CCC4(CC3)CCN(c3ccncc3)C4)cc21 (stereo not drawn) [IND_CC-347, 2-Methyl-N-[6-(2-pyridin-4-yl-2,8-diazaspiro[4.5]decane-8-carbonyl)-2,3-dihydro-1H-inden-1-yl]-benzamide]",106
5,"CN(C1CCc2ccc(C(=O)N3CCC4(CC3)CCN(c3ccncc3)CC4)cc21)S(=O)(=O)Cc1ccccc1F (stereo not drawn) [IND_CC-348, 1-(2-Fluorophenyl)-N-methyl-N-[6-(9-pyridin-4-yl-3,9-diazaspiro[5.5]undecane-3-carbonyl)-2,3-dihydro-1H-inden-1-yl]-methanesulfonic acid amide]",102
6,"O=C(c1ccc2c(c1)C(NS(=O)(=O)Cc1ccccc1F)CC2)N1CCC2(CC1)CCN(c1ccncc1)CC2 (stereo not drawn) [IND_CC-349, 1-(2-Fluorophenyl)-N-[6-(9-pyridin-4-yl-3,9-diazaspiro[5.5]undecane-3-carbonyl)-2,3-dihydro-1H-inden-1-yl]-methanesulfonic acid amide]",105
7,"O=C(c1ccc2c(c1)C(NS(=O)(=O)Cc1ccccc1F)CC2)N1CCC2(CC1)CCN(c1ccncc1)C2 (stereo not drawn) [IND_CC-350, 1-(2-Fluorophenyl)-N-[6-(2-pyridin-4-yl-2,8-diazaspiro[4.5]decane-8-carbonyl)-2,3-dihydro-1H-inden-1-yl]-methanesulfonic acid amide]",106
8,"CN(C1CCc2ccc(C(=O)N3CCC4(CC3)CCN(c3ccncc3)CC4)cc21)S(=O)(=O)Cc1cccc(Cl)c1 (stereo not drawn) [IND_CC-351, 1-(3-Chlorophenyl)-N-methyl-N-[6-(9-pyridin-4-yl-3,9-diazaspiro[5.5]undecane-3-carbonyl)-2,3-dihydro-1H-inden-1-yl]-methanesulfonic acid amide]",99
9,"O=C(c1ccc2c(c1)C(NS(=O)(=O)Cc1cccc(Cl)c1)CC2)N1CCC2(CC1)CCN(c1ccncc1)CC2 (stereo not drawn) [IND_CC-352, 1-(3-Chlorophenyl)-N-[6-(9-pyridin-4-yl-3,9-diazaspiro[5.5]undecane-3-carbonyl)-2,3-dihydro-1H-inden-1-yl]-methanesulfonic acid amide]",98
10,"O=C(c1ccc2c(c1)C(NS(=O)(=O)Cc1cccc(Cl)c1)CC2)N1CCC2(CC1)CCN(c1ccncc1)C2 (stereo not drawn) [IND_CC-353, 1-(3-Chlorophenyl)-N-[6-(2-pyridin-4-yl-2,8-diazaspiro[4.5]decane-8-carbonyl)-2,3-dihydro-1H-inden-1-yl]-methanesulfonic acid amide]",97
11,"Cc1cc(F)cc(C)c1S(=O)(=O)N(C)C1CCc2ccc(C(=O)N3CCC4(CC3)CCN(c3ccncc3)CC4)cc21 (stereo not drawn) [IND_CC-354, 4-Fluoro-N,2,6-trimethyl-N-[6-(9-pyridin-4-yl-3,9-diazaspiro[5.5]undecane-3-carbonyl)-2,3-dihydro-1H-inden-1-yl]-benzenesulfonic acid amide]",84
12,"Cc1cc(F)cc(C)c1S(=O)(=O)NC1CCc2ccc(C(=O)N3CCC4(CC3)CCN(c3ccncc3)CC4)cc21 (stereo not drawn) [IND_CC-355, 4-Fluoro-2,6-dimethyl-N-[6-(9-pyridin-4-yl-3,9-diazaspiro[5.5]undecane-3-carbonyl)-2,3-dihydro-1H-inden-1-yl]-benzenesulfonic acid amide]",65
13,"Cc1cc(F)cc(C)c1S(=O)(=O)NC1CCc2ccc(C(=O)N3CCC4(CC3)CCN(c3ccncc3)C4)cc21 (stereo not drawn) [IND_CC-356, 4-Fluoro-2,6-dimethyl-N-[6-(2-pyridin-4-yl-2,8-diazaspiro[4.5]decane-8-carbonyl)-2,3-dihydro-1H-inden-1-yl]-benzenesulfonic acid amide]",69

# Other lines, results leading:
row,inhibition at 10 µM [%],Compound
1,95,"O=C(c1ccc2c(c1)C(NS(=O)(=O)c1cc(Cl)ccc1Cl)CC2)N1CCC2(CCN(c3ccncc3)CC2)C1 (stereo not drawn) [IND_CC-357, 2,5-Dichloro-N-[6-(8-pyridin-4-yl-2,8-diazaspiro[4.5]decane-2-carbonyl)-2,3-dihydro-1H-inden-1-yl]-benzenesulfonic acid amide]"
2,104,"O=C(c1ccc2c(c1)C(NS(=O)(=O)Cc1ccccc1F)CC2)N1CCC2(CCN(c3ccncc3)CC2)C1 (stereo not drawn) [IND_CC-359, 1-(2-Fluorophenyl)-N-[6-(8-pyridin-4-yl-2,8-diazaspiro[4.5]decane-2-carbonyl)-2,3-dihydro-1H-inden-1-yl]-methanesulfonic acid amide]"
3,69,"O=C(c1ccc2c(c1)C(NS(=O)(=O)Cc1cccc(Cl)c1)CC2)N1CCC2(CCN(c3ccncc3)CC2)C1 (stereo not drawn) [IND_CC-360, 1-(3-Chlorophenyl)-N-[6-(8-pyridin-4-yl-2,8-diazaspiro[4.5]decane-2-carbonyl)-2,3-dihydro-1H-inden-1-yl]-methanesulfonic acid amide]"
4,99,"Cc1cc(F)cc(C)c1S(=O)(=O)NC1CCc2ccc(C(=O)N3CCC4(CCN(c5ccncc5)CC4)C3)cc21 (stereo not drawn) [IND_CC-361, 4-Fluoro-2,6-dimethyl-N-[6-(8-pyridin-4-yl-2,8-diazaspiro[4.5]decane-2-carbonyl)-2,3-dihydro-1H-inden-1-yl]-benzenesulfonic acid amide]"
5,81,"CN(C1CCc2ccc(C(=O)N3CCC4(CC3)CCN(c3ccncc3)CC4)cc21)S(=O)(=O)c1cc(Cl)c(Cl)cc1Cl (stereo not drawn) [IND_CC-362, 2,4,5-Trichloro-N-methyl-N-[6-(9-pyridin-4-yl-3,9-diazaspiro[5.5]undecane-3-carbonyl)-2,3-dihydro-1H-inden-1-yl]-benzenesulfonic acid amide]"
6,74,"O=C(c1ccc2c(c1)C(NS(=O)(=O)c1cc(Cl)c(Cl)cc1Cl)CC2)N1CCC2(CC1)CCN(c1ccncc1)C2 (stereo not drawn) [IND_CC-363, 2,4,5-Trichloro-N-[6-(2-pyridin-4-yl-2,8-diazaspiro[4.5]decane-8-carbonyl)-2,3-dihydro-1H-inden-1-yl]-benzenesulfonic acid amide]"
7,103,"O=C(NC1CCc2ccc(C(=O)N3CCC4(CC3)CCN(c3ccncc3)CC4)cc21)C1CCCCC1 (stereo not drawn) [IND_CC-364, N-[6-(9-Pyridin-4-yl-3,9-diazaspiro[5.5]undecane-3-carbonyl)-2,3-dihydro-1H-inden-1-yl]-cyclohexanecarboxylic acid amide]"
8,105,"CN(C(=O)C1CCCCC1)C1CCc2ccc(C(=O)N3CCC4(CC3)CCN(c3ccncc3)CC4)cc21 (stereo not drawn) [IND_CC-365, N-Methyl-N-[6-(9-pyridin-4-yl-3,9-diazaspiro[5.5]undecane-3-carbonyl)-2,3-dihydro-1H-inden-1-yl]-cyclohexanecarboxylic acid amide]"
